pIC50: −log10 of the molar value. Like-named read-outs stand apart in the source and are kept apart here.

In assay [1] the target is wild-type un-phosphorylated FGFR1 (Homo sapiens, UniProt P11362). Put plainly: FGFR Enzymatic Assay (FRET peptide phosphorylation), FGFR1. The note with it: pre-incubated for 4 hours.
Assay [2] deals with wild-type un-phosphorylated FGFR2 (Homo sapiens, UniProt P21802). Put plainly: FGFR Enzymatic Assay (FRET peptide phosphorylation), FGFR2.
Assay [3] addresses wild-type un-phosphorylated FGFR4 (Homo sapiens, UniProt P22455). Put plainly: FGFR Enzymatic Assay (FRET peptide phosphorylation), FGFR4.
Protocol: The inhibitor potency of the exemplified compounds was determined in an enzyme discontinuous assay that measures peptide phosphorylation using FRET measurements to detect product formation. Inhibitors were serially diluted in DMSO and a volume of 0.2 μL was transferred to the wells of a 384-well plate. […] Appropriate controls (enzyme blank and enzyme with no inhibitor) were included on the plate. […] The 10 μL/well reaction concentration of the peptide substrate was 500 nM whereas the ATP concentration was maintained near or below the ATP Km. The ATP Km values were pre-determined in a separate series of experiments. The reaction plate was incubated at 25° C. for 1 hr and the reactions were ended with the addition of 5 μL/well of quench solution (50 mM Tris, 150 mM NaCl, 0.5 mg/mL BSA, pH 7.8; 45 mM EDTA, 600 nM staurosporin, with Perkin Elmer Lance Reagents at 3.75 nM Eu-antibody PY20 and 180 nM APC-Streptavidin). The plate was allowed to equilibrate for ˜10 minutes at ambient temperature before scanning on a PheraStar plate reader (BMG Labtech) instrument.
Either GraphPad prism or XLfit was used to analyze the data. The IC50 values were derived by fitting the data to a four parameter logistic equation producing a sigmoidal dose-response curve with a variable Hill coefficient. Prism equation: Y=Bottom+(Top-Bottom)/(1+10^((Log IC50-X)*Hill slope)); XLfit equation: Y=(A+((B−A)/(1+((X/C)^D)))) where X is the logarithm of inhibitor concentration and Y is the response.
GraphPad prism3 was used to analyze the data. The IC50 values were derived by fitting the data to the equation for a sigmoidal dose-response with a variable slope. Y=Bottom+(Top-Bottom)/(1+10^((Log IC50-X)*Hill Slope)) where X is the logarithm of concentration and Y is the response.
The data in Table 1 was measured in wild-type un-phosphorylated FGFR1, FGFR2, FGFR3, and FGFR4 proteins.
The target in assay [4] is wild-type un-phosphorylated FGFR3 (Homo sapiens, UniProt P22607). Put plainly: FGFR Enzymatic Assay (FRET peptide phosphorylation), FGFR3.
[5] abbreviates: read-out: FGFR1, wild-type un-phosphorylated FGFR1.
The mark [6] stands for this setting: read-out: FGFR4, wild-type un-phosphorylated FGFR4, pre-incubated for 4 hours.
The mark [7] stands for this setting: FGFR1, wild-type un-phosphorylated FGFR1.
Setting [8] is: read-out: FGFR2, wild-type un-phosphorylated FGFR2, pre-incubated for 4 hours.

wild-type un-phosphorylated FGFR2, sequence (P21802 22-821): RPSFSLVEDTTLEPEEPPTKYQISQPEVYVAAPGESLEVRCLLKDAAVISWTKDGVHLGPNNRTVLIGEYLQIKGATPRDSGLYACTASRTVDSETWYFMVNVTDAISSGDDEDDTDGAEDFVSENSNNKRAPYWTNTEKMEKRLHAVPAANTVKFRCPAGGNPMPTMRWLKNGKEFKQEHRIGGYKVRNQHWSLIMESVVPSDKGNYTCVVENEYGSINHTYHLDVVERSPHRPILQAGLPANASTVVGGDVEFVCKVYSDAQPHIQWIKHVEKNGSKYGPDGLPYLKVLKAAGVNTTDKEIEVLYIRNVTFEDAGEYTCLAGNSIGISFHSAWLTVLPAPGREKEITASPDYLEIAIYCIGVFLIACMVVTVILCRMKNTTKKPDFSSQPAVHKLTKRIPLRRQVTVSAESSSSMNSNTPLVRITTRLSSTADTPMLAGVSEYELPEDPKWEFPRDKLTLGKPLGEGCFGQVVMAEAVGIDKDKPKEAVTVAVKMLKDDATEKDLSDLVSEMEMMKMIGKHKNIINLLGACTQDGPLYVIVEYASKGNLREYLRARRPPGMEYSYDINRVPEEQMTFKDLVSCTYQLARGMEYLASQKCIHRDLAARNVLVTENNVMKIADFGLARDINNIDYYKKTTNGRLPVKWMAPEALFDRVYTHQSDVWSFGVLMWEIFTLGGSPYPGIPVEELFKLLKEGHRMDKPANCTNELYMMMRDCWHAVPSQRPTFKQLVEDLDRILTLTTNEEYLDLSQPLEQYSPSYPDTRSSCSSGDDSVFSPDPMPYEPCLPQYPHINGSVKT
wild-type un-phosphorylated FGFR3, sequence (P22607 23-806): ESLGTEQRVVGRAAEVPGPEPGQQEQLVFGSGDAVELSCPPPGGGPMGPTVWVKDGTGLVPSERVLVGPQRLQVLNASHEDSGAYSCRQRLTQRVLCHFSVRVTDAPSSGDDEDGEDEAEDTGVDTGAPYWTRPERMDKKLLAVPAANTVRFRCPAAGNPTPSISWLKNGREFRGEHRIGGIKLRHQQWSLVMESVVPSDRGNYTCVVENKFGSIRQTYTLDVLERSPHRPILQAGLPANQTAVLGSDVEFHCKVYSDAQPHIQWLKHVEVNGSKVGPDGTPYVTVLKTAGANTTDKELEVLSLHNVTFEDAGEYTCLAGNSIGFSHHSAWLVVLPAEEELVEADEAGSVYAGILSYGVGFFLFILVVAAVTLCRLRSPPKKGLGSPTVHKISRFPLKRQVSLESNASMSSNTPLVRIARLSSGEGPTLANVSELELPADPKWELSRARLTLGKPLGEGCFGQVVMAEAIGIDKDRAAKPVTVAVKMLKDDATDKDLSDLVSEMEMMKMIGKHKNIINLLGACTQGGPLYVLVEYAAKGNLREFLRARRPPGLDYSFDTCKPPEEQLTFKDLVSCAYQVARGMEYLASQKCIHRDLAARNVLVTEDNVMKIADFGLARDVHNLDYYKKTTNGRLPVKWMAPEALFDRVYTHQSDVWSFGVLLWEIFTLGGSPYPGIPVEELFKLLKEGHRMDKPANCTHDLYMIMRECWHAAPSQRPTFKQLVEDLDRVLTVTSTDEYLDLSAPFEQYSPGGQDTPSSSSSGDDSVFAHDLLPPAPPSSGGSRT
wild-type un-phosphorylated FGFR4, sequence (P22455 22-802): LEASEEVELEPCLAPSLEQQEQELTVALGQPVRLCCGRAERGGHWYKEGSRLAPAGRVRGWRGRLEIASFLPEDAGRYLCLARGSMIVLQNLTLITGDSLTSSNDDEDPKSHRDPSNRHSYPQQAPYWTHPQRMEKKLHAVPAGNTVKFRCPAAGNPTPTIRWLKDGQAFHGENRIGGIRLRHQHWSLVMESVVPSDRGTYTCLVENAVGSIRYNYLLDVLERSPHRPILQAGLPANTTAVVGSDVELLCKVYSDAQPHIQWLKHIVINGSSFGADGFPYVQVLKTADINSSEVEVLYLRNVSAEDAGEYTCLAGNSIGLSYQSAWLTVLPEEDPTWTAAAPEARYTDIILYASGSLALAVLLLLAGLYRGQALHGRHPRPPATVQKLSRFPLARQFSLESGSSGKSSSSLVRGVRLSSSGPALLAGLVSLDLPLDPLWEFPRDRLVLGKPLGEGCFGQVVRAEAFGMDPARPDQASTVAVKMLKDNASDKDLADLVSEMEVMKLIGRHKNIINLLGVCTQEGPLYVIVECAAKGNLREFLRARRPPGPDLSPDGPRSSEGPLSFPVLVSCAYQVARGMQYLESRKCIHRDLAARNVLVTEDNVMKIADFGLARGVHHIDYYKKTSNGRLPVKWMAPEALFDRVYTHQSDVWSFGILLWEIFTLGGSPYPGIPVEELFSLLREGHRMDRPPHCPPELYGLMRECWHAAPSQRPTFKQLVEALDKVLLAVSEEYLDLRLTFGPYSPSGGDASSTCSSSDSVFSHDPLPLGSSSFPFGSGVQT
wild-type un-phosphorylated FGFR1, sequence (P11362 22-822): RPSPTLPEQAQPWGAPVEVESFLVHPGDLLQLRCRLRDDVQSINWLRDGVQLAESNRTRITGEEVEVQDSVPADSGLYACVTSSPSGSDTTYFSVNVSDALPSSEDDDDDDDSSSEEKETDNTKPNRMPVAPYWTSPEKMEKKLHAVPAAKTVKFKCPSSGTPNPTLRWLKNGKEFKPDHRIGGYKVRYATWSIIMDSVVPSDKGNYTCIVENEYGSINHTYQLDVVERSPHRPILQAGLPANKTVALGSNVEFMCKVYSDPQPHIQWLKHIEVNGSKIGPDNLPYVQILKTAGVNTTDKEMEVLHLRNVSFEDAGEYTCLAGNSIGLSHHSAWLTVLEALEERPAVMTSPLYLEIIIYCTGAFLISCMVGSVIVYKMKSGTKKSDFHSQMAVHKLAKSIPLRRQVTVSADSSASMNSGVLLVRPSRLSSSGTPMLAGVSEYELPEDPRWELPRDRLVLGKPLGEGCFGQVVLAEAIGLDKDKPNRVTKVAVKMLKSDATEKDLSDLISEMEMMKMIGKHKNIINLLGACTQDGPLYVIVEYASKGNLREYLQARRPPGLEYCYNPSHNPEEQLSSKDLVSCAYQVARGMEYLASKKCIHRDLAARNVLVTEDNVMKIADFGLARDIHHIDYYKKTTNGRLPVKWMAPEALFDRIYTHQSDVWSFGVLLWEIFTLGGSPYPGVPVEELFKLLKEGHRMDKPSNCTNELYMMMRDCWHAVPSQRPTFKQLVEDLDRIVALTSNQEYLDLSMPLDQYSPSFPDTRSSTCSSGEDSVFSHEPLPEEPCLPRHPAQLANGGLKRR

Consider `COc1cc2[nH]nc(-c3ccc(C4CCN(C(C)=O)C4)nc3)c2nc1-c1cccc2c1CCC2C#N` (single isomer, unassigned) [Example 183, 4-(3-(6-(1-Acetylpyrrolidin-3-yl)pyridin-3-yl)-6-methoxy-1H-pyrazolo[4,3-b]pyridin-5-yl)-2,3-dihydro-1H-indene-1-carbonitrile], for which the pIC50 in assay [1] (setting [5]) is 7.40 to 8.22; in assay [2] it was more than 8.22; in assay [3] (setting [6]), 7.40 to 8.22; in assay [4], more than 8.22.

On to `COc1cc2[nH]nc(-c3ccc(C4CCN(C(=O)N5CCOCC5)C4)nc3)c2nc1-c1cccc2c1CCC2C#N` (single isomer, unassigned) [Example 184, 4-(6-Methoxy-3-(6-(1-(morpholine-4-carbonyl)pyrrolidin-3-yl)pyridin-3-yl)-1H-pyrazolo[4,3-b]pyridin-5-yl)-2,3-dihydro-1H-indene-1-carbonitrile], for which the pIC50 in assay [1] (setting [5]) was 7.40 to 8.22; in assay [2], more than 8.22; in assay [3] (setting [6]) it was 7.40 to 8.22; in assay [4], more than 8.22.

Take `COc1cc2[nH]nc(-c3cnn(CC#N)c3)c2nc1-c1cccc2c1CCC2C#N` (single isomer, unassigned) [Example 185, 4-(3-(1-(Cyanomethyl)-1H-pyrazol-4-yl)-6-methoxy-1H-pyrazolo[4,3-b]pyridin-5-yl)-2,3-dihydro-1H-indene-1-carbonitrile]: the pIC50 was 7.00 to 7.40 in assay [1] (setting [7]), more than 8.22 in assay [2], 7.40 to 8.22 in assay [3] (setting [6]) and more than 8.22 in assay [4].

On to `COc1cc2[nH]nc(-c3ccc(N4CCN(C)CC4)nc3)c2nc1-c1cccc2c1CCC2C#N` (single isomer, unassigned) [Example 186, 4-(6-Methoxy-3-(6-(4-methylpiperazin-1-yl)pyridin-3-yl)-1H-pyrazolo[4,3-b]pyridin-5-yl)-2,3-dihydro-1H-indene-1-carbonitrile], for which the pIC50 in assay [1] (setting [5]) is 7.40 to 8.22; in assay [2], more than 8.22; in assay [3] (setting [6]), 7.40 to 8.22; in assay [4], more than 8.22.

Turning to `COc1cc2[nH]nc(-c3cnn(C)c3)c2nc1-c1cccc(C)c1C` [Example 1, 5-(2,3-Dimethylphenyl)-6-methoxy-3-(1-methyl-1H-pyrazol-4-yl)-1H-pyrazolo[4,3-b]pyridine], the pIC50 in assay [1] (setting [7]) was less than 7.00; in assay [2] (setting [8]), 7.40 to 8.22; in assay [3], less than 7.00; in assay [4], more than 8.22.

Turning to `COc1cc2[nH]nc(-c3cnn(C)c3)c2nc1-c1cccc2c1CCC2` [Example 2, 5-(2,3-Dihydro-1H-inden-4-yl)-6-methoxy-3-(1-methyl-1H-pyrazol-4-yl)-1H-pyrazolo[4,3-b]pyridine], the pIC50 in assay [1] (setting [7]) is 7.00 to 7.40; in assay [2], more than 8.22; in assay [3], 7.00 to 7.40; in assay [4] it was more than 8.22.

Regarding `COc1cc2[nH]nc(-c3cnn(C)c3)c2nc1-c1cccc2c1OCC2` [Example 4, 5-(2,3-Dihydrobenzofuran-7-yl)-6-methoxy-3-(1-methyl-1H-pyrazol-4-yl)-1H-pyrazolo[4,3-b]pyridine], the pIC50 in assay [1] (setting [7]) is less than 7.00; in assay [2] (setting [8]), 7.40 to 8.22; in assay [3], less than 7.00; in assay [4] it was more than 8.22.

Turning to `COc1cc2[nH]nc(-c3cnn(C)c3)c2nc1-c1cccc(CC#N)c1C` [Example 5, 2-(3-(6-Methoxy-3-(1-methyl-1H-pyrazol-4-yl)-1H-pyrazolo[4,3-b]pyridin-5-yl)-2-methylphenyl)acetonitrile], the pIC50 in assay [1] (setting [7]) was less than 7.00; in assay [2] (setting [8]), 7.40 to 8.22; in assay [3], less than 7.00; in assay [4] it was more than 8.22.

As to `COc1cc2[nH]nc(-c3cnn(C4CC(C#N)C4)c3)c2nc1-c1cccc2c1CCC2` (stereo not drawn) [Example 16, 3-(4-(5-(2,3-Dihydro-1H-inden-4-yl)-6-methoxy-1H-pyrazolo[4,3-b]pyridin-3-yl)-1H-pyrazol-1-yl)cyclobutanecarbonitrile], the pIC50 in assay [1] (setting [7]) is 7.00 to 7.40; in assay [2], more than 8.22; in assay [3], less than 7.00; in assay [4], more than 8.22.

Source of the values: US12083124B2 (Incyte Corporation, priority 2019, dated 2024).
